Test results published in patent publication US11958796B2, “Hydrophilic and particularly water soluble DBOV-derivatives” (Max-Planck-Gesellschaft zur Förderung der Wissenschaften …, priority 2018, dated 2024).

Assays:
solubility in water = format: physicochemical; conditions: room temperature
Method: In accordance with the present invention, the solubility of the compound having the general formula (1) in water at 23° C. is measured as follows: 1.0 mg sample is weighed into an Erlenmeyer flask and is then mixed homogeneously with 4 ml of water with a spatula at 23° C. The remaining substance on the spatula is stripped off with a magnetic stirrer bar, which is then added to the Erlenmeyer flask. While stirring with a magnetic stirrer, water is added dropwise with a burette until the solution in the Erlenmeyer flask becomes clear at 23° C. After that, the solubility of compound in water is calculated by calculating the ratio of weighed compound divided by the volume of added water and then by recalculating this ratio to 1 l of water.

living cells [1] = assay: cytotoxicity test in living cells; format: cell-based; conditions: concentration of 1 μM
Method: (§1) More specifically, the cytotoxicity of DBOV-Mes-OTEG was tested in living cells. […] Moreover, the uptake of DBOV-Mes-OTEG into living cells was investigated by imaging 21 hours with low laser intensity at the spinning disk confocal microscopy (Visitron).

living cells [2] = assay: uptake into living cells, spinning disk confocal microscopy; format: cell-based
Method: as §1

fixed cell samples = assay: blinking-mode imaging of fixed samples in PBS; conditions: fixed samples in PBS without special imaging buffer; continuous exposure, laser intensity 10 kW/cm^2 for 90 min
From the text: After the aforementioned live cell imaging, the samples were fixed and imaged in phosphate-buffered saline (PBS) without special imaging buffer.

Substance: 3,4,5-tris(2,5,8,11-tetraoxatridecan-13-yloxy)phenyl substituted 6,14-dimesityldibenzo[hi,st]ovalene [DBOV-Mes-OTEG]
- solubility in water (solubility in water): 100 µg/mL
- cytotoxicity (living cells [1]): does not show any significant toxicity
- intracellular location (living cells [2]; after 21 hours incubation): in the nucleus and nuclear membrane
- uptake / intracellular location (living cells [2]; beginning of the incubation): taken into the cytoplasm
- stability of blinking signals (photostability) (fixed cell samples): no significant decrease of blinking signals
